Activity calls are given as the source filed them. The calls are words filed in the database; no cut-off is given here.
Assays:
[1] = Tested for its maximal percent change of delaying functional refractory period in uM
[2] = Tested for its maximal percent change of heart rate in uM; format: functional
[3] = Tested for its maximal percent change of force of constriction in uM; format: functional
[4] = Negative log of concentration (-logC)for delaying functional refractory period 10 ms in animal atrium; parameters: species or system Cardiac atrium
[5] = Tested for its effective concentration for delaying functional refractory period 10 ms in animal atrium; parameters: species or system Cardiac atrium
[6] = The compound was tested for its maximal percent change of delaying functional refractory period in uM; no effect
[7] = The compound was tested for its maximal percent change of force of constriction in uM; no effect; format: functional

In the case of CN(CCOc1ccccc1)CCc1ccc(NS(C)(=O)=O)cc1, the Max delta FRP [1] is reported as 20.2%, the “Max delta HR” value [2] is reported as -28.51% and the Max delta FC [3] is reported as 20.2%.

With CS(=O)(=O)Nc1ccc(CCN(CCOc2ccccc2)C(=O)c2ccccc2)cc1 the Max delta FRP [1] was 5.33%, the “Max delta HR” value [2] was -20% and the Max delta FC [3] was 33.3%.

CN(CCc1ccc(NS(C)(=O)=O)cc1)C1CCCCC1 showed an EA [4] of 5.32 and an Effective concentration [5] of 4.789 µM.

In the case of CS(=O)(=O)N(c1ccc(CCN(CCOc2ccccc2)Cc2ccccc2)cc1)S(C)(=O)=O, the “Max delta FRP” value [6] is reported as “inactive”, the “Max delta HR” value [2] is reported as -17.86% and the Max delta FC [3] is reported as 25%.

With CC(=O)N(CCOc1ccccc1)CCc1ccc(NS(C)(=O)=O)cc1 the Max delta FRP [1] was 58.4%, the “Max delta HR” value [2] was -46.17% and the Max delta FC [3] was -37.9%.

In the case of CS(=O)(=O)Nc1ccc(CCN(CCOc2ccccc2)Cc2ccccc2)cc1, the “Max delta FRP” value [6] is reported as “inactive”, the “Max delta HR” value [2] is reported as -31.8% and the Max delta FC [3] is reported as 25%.

With CN(CCOc1ccc(NS(C)(=O)=O)cc1)CCc1ccc(NS(C)(=O)=O)cc1 [DOFETILIDE] the Max delta FRP [1] was 24%, the EA [4] was 7.92 and the Effective concentration [5] was 0.012 µM. For the same molecule, the “Max delta HR” value [2] was -30.03% and the Max delta FC [3] was 17.1%.

In the case of CC(=O)N(CCOc1ccc(NS(C)(=O)=O)cc1)CCc1ccc(NS(C)(=O)=O)cc1, the EA [4] is reported as 7.67 and the Effective concentration [5] is reported as 0.021 µM.

CS(=O)(=O)Nc1ccc(CCN(Cc2ccccc2)Cc2ccccc2)cc1 gave an EA [4] of 6.57 and an Effective concentration [5] of 0.27 µM.

In the case of C=CCN(CCOc1ccccc1)CCc1ccc(N(S(C)(=O)=O)S(C)(=O)=O)cc1, the “Max delta FRP” value [6] is reported as “inactive”, the “Max delta HR” value [2] is reported as -8.33% and the Max delta FC [3] is reported as 16.7%.

For CS(=O)(=O)Nc1ccc(CCN(CCOc2ccc(NS(C)(=O)=O)cc2)Cc2ccccc2)cc1, the EA [4] was 7.8 and the Effective concentration [5] was 0.016 µM.

In the case of CN(CCOc1ccccc1)CCc1ccc(N(S(C)(=O)=O)S(C)(=O)=O)cc1, the Max delta FRP [1] is reported as 12%, the “Max delta FC” value [7] is reported as “inactive” and the “Max delta HR” value [2] is reported as -20.69%.

In the case of C=CCN(CCOc1ccccc1)CCc1ccc(NS(C)(=O)=O)cc1, the Max delta FRP [1] is reported as 9.77%, the “Max delta HR” value [2] is reported as -15.18% and the Max delta FC [3] is reported as 16.7%.

CN(CCc1ccc(NS(C)(=O)=O)cc1)Cc1ccc(Cl)cc1 showed an EA [4] of 5.65 and an Effective concentration [5] of 2.239 µM.

Work on CN(CCc1ccc(NS(C)(=O)=O)cc1)Cc1ccccc1 yielded an EA [4] of 6.34 and an Effective concentration [5] of 0.372 µM.

With COc1ccc(CN(CCc2ccc(N(S(C)(=O)=O)S(C)(=O)=O)cc2)Cc2ccccc2)cc1 the EA [4] was 6.1 and the Effective concentration [5] was 0.79 µM.

With CC(=O)N(CCOc1ccccc1)CCc1ccc(N(S(C)(=O)=O)S(C)(=O)=O)cc1 the “Max delta FRP” value [6] was “inactive”, the “Max delta FC” value [7] was “inactive” and the “Max delta HR” value [2] was -20.51%.

COc1ccccc1CN(CCc1ccc(NS(C)(=O)=O)cc1)Cc1ccccc1 gave an EA [4] of 6.85 and an Effective concentration [5] of 0.141 µM.

CS(=O)(=O)Nc1ccc(CCN(Cc2ccccc2)Cc2ccc(Cl)cc2)cc1 showed an EA [4] of 5.98 and an Effective concentration [5] of 1.05 µM.

Work on CN(CCc1ccc(NS(C)(=O)=O)cc1)Cc1ccc2c(c1)OCO2 yielded an EA [4] of 6.15 and an Effective concentration [5] of 0.89 µM.

Work on COc1ccc(CN(C)CCc2ccc(N(S(C)(=O)=O)S(C)(=O)=O)cc2)cc1 yielded an EA [4] of 5.93 and an Effective concentration [5] of 1.17 µM.

Cc1ccc(CN(C)CCc2ccc(N(S(C)(=O)=O)S(C)(=O)=O)cc2)cc1 gave an EA [4] of 6.02 and an Effective concentration [5] of 0.953 µM.

In the case of CS(=O)(=O)N(c1ccc(CCN(Cc2ccccc2)Cc2ccc3c(c2)OCO3)cc1)S(C)(=O)=O, the EA [4] is reported as 6.41 and the Effective concentration [5] is reported as 0.38 µM.

Work on CS(=O)(=O)Nc1ccc(CCN(CCOc2ccc(NS(C)(=O)=O)cc2)Cc2ccc(Cl)cc2)cc1 yielded an EA [4] of 7.44 and an Effective concentration [5] of 0.037 µM.

CS(=O)(=O)Nc1ccc(CCNCCOc2ccc(NS(C)(=O)=O)cc2)cc1 [N-DESMETHYLDOFETILIDE] showed an EA [4] of 7.63 and an Effective concentration [5] of 0.023 µM.

For Cc1ccc(CN(CCc2ccc(N(S(C)(=O)=O)S(C)(=O)=O)cc2)Cc2ccccc2)cc1, the EA [4] was 6.21 and the Effective concentration [5] was 0.62 µM.
